{"source": "PubChem BioAssay AID743485", "about": "(Broad Institute, 2014)", "data": [{"test_system": "Mycobacterium tuberculosis replicating, CFU count, imaging", "test": "M. tuberculosis CFU reduction, CFU imaging, dry powder, dose response (AID 743485)", "units": {"AC90": "µM"}, "values": [{"smiles": "Cn1c(NC(=O)c2ccccc2)nc2c3ncccc3ccc21", "AC90": "< 8"}, {"smiles": "Cn1c(NC(=O)c2ccccc2)nc2c3nccnc3ccc21", "AC90": "< 16"}, {"smiles": "Cn1c(NC(=O)c2ccccc2)nc2c3cnccc3ccc21", "AC90": "< 8"}, {"smiles": "Cn1c(NC(=O)c2ccccc2)nc2c3ccncc3ccc21", "AC90": "< 8"}]}]}
